Reference: patent publication US4352792A, “3-Alkoxyflavone antiviral agents” (priority 1979, dated 1982)
Converted amounts (≈) assume the structure as drawn. Read-outs that look alike come from different tables or passages of the source.

Assays:
[1] = system: rhinovirus HGP; test: Inhibition of viral cytopathogenic effect in HeLa cells (rhinovirus HGP); assay type: cell-based; conditions: Enterovirus, 48 h, read-out: IC50 rhinovirus HGP
[2] = system: Coxsackie virus B1; test: Inhibition of viral cytopathogenic effect in HeLa cells (Coxsackie virus B1); assay type: cell-based; conditions: 24 h, read-out: IC50 Coxsackie virus B1
[3] = system: Coxsackie virus B1; test: Anti-Coxsackie virus activity, lethal infection in mice; conditions: Mus musculus, 504 h, read-out: Survival
[4] = acute toxicity in mice; conditions: mouse, in vivo, day 21
[5] = 50% inhibition of viral c.p.e., HeLa cells, 2 days at 33° C.
[6] = 50% inhibition of viral c.p.e., HeLa cells, 1 day at 37° C.
[7] = ip, single dose i.p., dissolved in dimethyl sulfoxide, read-out: LD50 i.p.
[8] = po, single dose p.o., suspended in 0.5% carboxymethylcellulose, read-out: LD50 p.o.

SMILES | IC50 [1, 5] [µg/mL] | IC50 [2, 6] [µg/mL] | other results
COc1ccc(-c2oc3cc(O)cc(O)c3c(=O)c2OC)cc1 [5,7-dihydroxy-3,4'-dimethoxyflavone] |  |  | IC50 ([1]; HeLa): 0.5 µg/mL (≈ 1.59 µM); IC50 ([2]; HeLa): > 4 µg/mL
COc1cc(O)c2c(=O)c(OC)c(-c3ccc(OC(=O)C(O)C(O)C(=O)O)c(OC)c3)oc2c1 (stereo not drawn) [4'-(3-carboxy-2,3-dihydroxypropionyloxy)-5-hydroxy-3,3',7-trimethoxyflavone] | 0.1 to 0.2 (≈ 0.21 to 0.42 µM) | 0.1 to 0.2 (≈ 0.21 to 0.42 µM) | 
COc1cc(O)c2c(=O)c(OC)c(-c3ccc(OC(=O)[C@@H](N)CCC(=O)O)c(OC)c3)oc2c1 [4'-(L-α-glutamyloxy)-5-hydroxy-3,3',7-trimethoxyflavone] | 0.25 (≈ 0.528 µM) | 0.25 to 0.5 (≈ 0.528 to 1.06 µM) | 
COc1cc(OC(=O)C(C)C)c2c(=O)c(OC)c(-c3ccc(OC(=O)C(C)(C)C)c(OC)c3)oc2c1 [5-(isobutyryloxy)-3,3',7-trimethoxy-4'-(pivaloyloxy)-flavone] | 0.3 (≈ 0.602 µM) | 0.3 to 1 (≈ 0.602 to 2.01 µM) | responders at 10 mg/kg ([3]; po): 30%; responders at 20 mg/kg ([3]; po): 40%
COc1cc(OC)c2c(=O)c(OC)c(-c3ccc(O)c(OC)c3)oc2c1 [4'-hydroxy-3,3',5,7-tetramethoxyflavone] | 2 to 7 (≈ 5.58 to 19.5 µM) | 6 to 7 (≈ 16.7 to 19.5 µM) | 
CCOC(=O)Oc1ccc(-c2oc3cc(OC)cc(OC(=O)OCC)c3c(=O)c2OC)cc1OC [4',5-bis-(ethoxycarbonyloxy)-3,3',7-trimethoxyflavone] | 0.3 to 1 (≈ 0.614 to 2.05 µM) | 0.3 to 1 (≈ 0.614 to 2.05 µM) | responders at 10 mg/kg ([3]; po): 30%; responders at 20 mg/kg ([3]; po): 30%
COc1cc(O)c2c(=O)c(OC)c(-c3ccc(OC(=O)[C@@H](N)CCC(N)=O)c(OC)c3)oc2c1 [4'-(L-glutaminyloxy)-5-hydroxy-3,3',7-trimethoxyflavone] | 0.25 to 0.5 (≈ 0.529 to 1.06 µM) |  | IC50 ([2]; HeLa): 0.25 to 0.5 µg/mL (≈ 0.529 to 1.06 µM); LD50 at 504 h [4, 7]: > 1000 mg/kg; LD50 at 504 h [4, 8]: > 5000 mg/kg; responders at 10 mg/kg ([3]; iv): 54%
CCOc1c(-c2ccc(O)c(OC)c2)oc2cc(OC)cc(O)c2c1=O [3-ethoxy-4',5-dihydroxy-3',7-dimethoxyflavone] | 0.05 to 0.1 (≈ 0.14 to 0.279 µM) | 0.05 to 0.1 (≈ 0.14 to 0.279 µM) | 
COc1cc(OC(=O)c2cccnc2)c2c(=O)c(OC)c(-c3ccc(OC(=O)c4cccnc4)c(OC)c3)oc2c1 [3,3',7-trimethoxy-4',5-bis-(nicotinoyloxy)-flavone] | 0.3 to 1 (≈ 0.541 to 1.8 µM) | 0.3 to 1 (≈ 0.541 to 1.8 µM) | responders at 10 mg/kg ([3]; po): 40%; responders at 20 mg/kg ([3]; po): 30%
COc1ccc(-c2oc3cc(OC)cc(O)c3c(=O)c2OC)cc1 [5-hydroxy-3,4',7-trimethoxyflavone] | 1 (≈ 3.05 µM) | > 8 | 
COc1c(-c2ccc(N)cc2)oc2cc(O)cc(O)c2c1=O [4'-amino-5,7-dihydroxy-3-methoxyflavone] | 1 to 3 (≈ 3.34 to 10 µM) | 3 to 10 (≈ 10 to 33.4 µM) | 
COc1cc(O)c2c(=O)c(OC)c(-c3ccc(OC(=O)[C@H](C)N)c(OC)c3)oc2c1 [4'-(L-alanyloxy)-5-hydroxy-3,3',7-trimethoxyflavone] | 0.5 (≈ 1.2 µM) |  | IC50 ([2]; HeLa): 0.25 to 0.5 µg/mL (≈ 0.602 to 1.2 µM); LD50 at 504 h [4, 7]: > 1000 mg/kg; LD50 at 504 h [4, 8]: > 5000 mg/kg; responders at 10 mg/kg ([3]; iv): 42%
